Laboratory results taken from paper PMC7567501 (Journal of Enzyme Inhibition and Medicinal Chemistry, 2019).
Where two headings read alike, the source gives them in different places.

Assays:
[1] = target: T1, AChE (Electrophorus electricus, UniProt O42275); test: biochemical; design: species or system Electrophorus electricus (electric eel)
T1 construct: extracted from Electrophorus electricus (electric eel); purchased Sigma-Aldrich; host or cells: Electrophorus electricus (extracted)
Procedure: The electronic spectra and the AChE inhibition assays were performed in a 1-cm path length quartz cell with a Perkin Elmer Lambda 35 spectrophotometer equipped with a temperature programmer PTP1 + 1 Peltier System (T = 25.0 ± 0.1 °C). The enzyme AChE 500 U, extracted from Electrophorus electricus (electric eel), was purchased from Sigma-Aldrich.
The enzymatic activity of AChE was determined using an adaptation of the Ellman’s method, as described previously[29]^,[32]. Firstly, a stock solution of AChE was prepared by dissolving enzyme 500 U in 10 mL of tris(hydroxymethyl)aminomethane (TRIS) buffer (50 mM, pH 8). Then, 4–(2-hydroxyethyl)-1-piperazineethanesulfonic acid (HEPES) buffer was used for further dilution of the enzyme solution therefore obtaining the final working solution of AChE. The assay solution consisted of 374 µL of HEPES buffer (50 mM and pH 8.0), a variable volume (10–50 µL) of the compound’s stock solution (1 mg/mL of MeOH), 476 µL of 3 mM bis(3-carboxy-4-nitrophenyl) disulphide (DTNB), 25 µL of AChE stock solution and the necessary amount of methanol to attain the same volume of sample mixture in a 1 mL cuvette. After mixing, samples were left to incubate for 15 min and then 75 µL of 16 mM acetylthiocholine iodide (AChI) solution was added and immediately the reaction was monitored at 405 nm for 5 min. Firstly, enzyme activity was determined by measuring the rate of enzymatic reaction in solution by recording absorbance (with or without enzyme) at 405 nm. To calculate the percent inhibition of AChE, the enzyme activity in the presence of increasing concentrations of the test compound, as well as for a blank reaction (methanol without compounds), were measured at 405 nm.
Where v1is the initial reaction rate in the presence of the inhibitor and v0 is the initial rate of the control reaction. The curves of inhibition were obtained using a plot of percentage of enzymatic inhibition versus inhibitor concentration, and a calibration curve was obtained from which the linear regression parameters were obtained.

[2] = Radical scavenging (anti-oxidant) activity, DPPH method; format: physicochemical; conditions: DPPH in methanol, 30 min, room temperature
Procedure: A selection of the newly synthesised hybrids was tested for their radical scavenging activity (anti-oxidant activity, EC50), based on their interaction with the 2,2-diphenyl-1-picrylhydrazyl (DPPH) free radical, as previously described.
The anti-oxidant capacity or, more precisely, radical scavenging activity based on the electron and proton donation ability, was evaluated by the DPPH method previously described[29]^,[46]. To a 2.5 mL solution of DPPH (0.002%) in methanol, solutions of each compound were added in different volumes to obtain different concentrations in a 3.5 mL final volume. The samples were incubated for 30 min at room temperature. The absorbance was measured at 517 nm against the corresponding blank (methanol). The antioxidant activity was calculated by Eq. (1)^29. (1) %AA = ((ADPPH−Asample)/ADPPH) × 100
The tests were carried out in triplicate. The compound concentration providing 50% of antioxidant activity (EC50) was obtained by plotting the antioxidant activity against the compound concentration.

[3] = target: T2, Aβ1-42 (Homo sapiens, UniProt P05067); test: biochemical; conditions: self-mediated Aβ42 aggregation without copper, inhibitor 80 µM, ThT fluorescence; for inhibition at 80 µM: read-out: Aβ aggregation inhibition, Self-Aβ aggr
T2 construct: Amyloid β-peptide (1–42), Aβ1-42, was purchased from GeneCust; purchased GeneCust
T2 sequence (P05067 672-713 limits assumed): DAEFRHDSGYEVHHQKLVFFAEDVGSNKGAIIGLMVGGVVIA
From the text: (§1) The Aβ amyloid plaques are one of the main hallmarks of AD and they result from over production and aggregation of β-amyloid peptide, which can accumulate outside the neurons, by self-mediated or Cu^2+-induced process, interfering with the synaptic impairment, neurotransmission and memory. Therefore, anti-AD drugs have been designed aimed to disrupt and disaggregate the Aβ’s fibrils into monomers, obtaining non-toxic forms of β-secretase’s products. To assess the effect of these new hybrids in the inhibition of amyloid peptide aggregation, a selection of the compounds was in vitro assayed, based on the thioflavin T (ThT) method. Indeed ThT is a histochemical dye able to create ionic or hydrophobic interactions with the peptide β–sheets, the predominant secondary structure of the amyloid fibrils in aqueous solutions[36]. This binding interactions can be monitored by fluorimetry since the presence of ThT-fibrils increases the absorbance and the emission of the ThT dye, and induces red shifts on the absorbance (from 385 to 446 nm) and emission peaks (from 445 to 485 nm)[14]. All the measurements were performed after incubation of the self-mediated and Cu^2+-induced Aβ aggregates in the presence/absence of the herein studied compounds. […]. […] This may be rationalised on the basis of their copper chelating capacity, as previously shown by other metal chelating compounds[14]^,[38]. Furthermore, despite some exceptions (e.g. 20 and 24), the increase in linker length and the chloro TAC substitution induce some small negative effects in the inhibition of Aβ self-aggregation.
(§2) For the study of the β-amyloid (Aβ) aggregation, the ThT fluorescence assay was performed using a Varian Cary Eclipse fluorimeter at the following wavelengths: excitation (446 nm) and emission (485 nm). Amyloid β-peptide (1–42), Aβ1-42, was purchased from GeneCust as a lyophilised powder stored at −20 °C. TEM assays were performed with a Hitachi H8100 transmission electron microscope with a LaB6 filament (200 kV, 10000–20000 × magnification) at MicroLab/IST.
(§3) Among all the methods to measure the aggregation of Aβ1-42, the assay based on Thioflavin T (ThT) is the standard procedure based on the fluorescence of this dye[49]^,[50]. This test is performed with Aβ1-42 peptide previously prepared by dissolving it in 1,1,1,3,3,3–hexafluoro-2-propanol (HFIP), an organic solvent useful to solubilise and monomerize the β–sheet protein aggregates and reserve them in the fridge. Films are re-dissolved in an Eppendorf tube with a fresh solution of a mixture of CH3CN/Na2CO3/NaOH, to have a stable stock solution, and afterwards, added to an optimised fibrillation phosphate buffer. The samples were prepared using MeOH (1 mg/mL) as solvent, followed by incubation in a water bath for 24 h at 37 °C with gentle shaking. After incubation, the samples were added to a 96-well plate (BD Falcon) with 180 µL of 5 µM ThT in 50 mM glycine-NaOH (pH 8.5) buffer. Blank samples were prepared for each concentration in a similar way, devoid of peptide. After 5-min incubation with the dye, the ThT fluorescence was measured at 446 nm (excitation) and 485 nm (emission).

[4] = target: T2, Aβ1-42; test: Inhibition of Cu2+-induced Aβ1-42 aggregation, thioflavin T fluorescence; format: biochemical; conditions: Aβ42 aggregation with copper (40 µM), inhibitor 80 µM, ThT fluorescence; for inhibition at 80 µM: read-out: Aβ aggregation inhibition, Cu-ind Aβ aggr
From the text: as §1, §2
as §3, with “The samples were prepared using MeOH (1 mg/mL) as solvent, followed by incubation in a water bath for 24 h at 37 °C with gentle shaking. After incubation, the samples were added to a 96-well plate (BD Falcon) with 180 µL of 5 µM ThT in 50 mM glycine-NaOH (pH 8.5) buffer. Blank samples were prepared for each concentration in a similar way, devoid of peptide.” left out

[5] = AChE from Electric eel, mean of five independent experiments, read-out: AChE inhibition IC50

T1 sequence (O42275 24-633): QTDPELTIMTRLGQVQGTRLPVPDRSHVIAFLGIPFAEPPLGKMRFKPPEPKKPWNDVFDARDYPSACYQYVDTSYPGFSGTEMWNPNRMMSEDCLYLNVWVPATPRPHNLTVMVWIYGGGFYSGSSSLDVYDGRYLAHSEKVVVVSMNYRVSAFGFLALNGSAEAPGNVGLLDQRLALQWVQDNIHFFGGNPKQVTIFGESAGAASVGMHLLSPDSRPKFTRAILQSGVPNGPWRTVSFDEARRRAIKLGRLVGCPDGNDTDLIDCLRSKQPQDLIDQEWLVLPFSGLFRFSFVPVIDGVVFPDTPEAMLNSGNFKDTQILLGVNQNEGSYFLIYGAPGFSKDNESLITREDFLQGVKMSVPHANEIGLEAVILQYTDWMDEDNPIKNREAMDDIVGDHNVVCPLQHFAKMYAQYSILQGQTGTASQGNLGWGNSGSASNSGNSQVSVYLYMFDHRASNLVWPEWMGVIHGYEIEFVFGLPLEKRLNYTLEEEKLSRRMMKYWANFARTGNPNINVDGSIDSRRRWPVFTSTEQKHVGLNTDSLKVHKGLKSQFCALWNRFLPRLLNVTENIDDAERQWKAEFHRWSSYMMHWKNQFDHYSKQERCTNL

Compound	IC50 [1, 5]	EC50 [2]	inhibition at 80 µM [3]	inhibition at 80 µM [4]	IC50 [1]	Aβ aggregation inhibition, Cu-ind Aβ aggr [4]	Aβ aggregation inhibition, Self-Aβ aggr [3]
COc1cccc2cc(C(=O)NCCCCNc3c4c(nc5cc(Cl)ccc35)CCCC4)oc12 [Compound 20, N-(4-((6-chloro-1,2,3,4-tetrahydroacridin-9-yl)amino)butyl)-7-methoxybenzofuran-2-carboxamide]	0.67 µM	> 1000 µM	64.4%	–	–	–	–
O=C(NCCCNc1c2c(nc3ccccc13)CCCC2)c1cc2cccc(O)c2o1 [Compound 21, 7-Hydroxy-N-(3-((1,2,3,4-tetrahydroacridin-9-yl)amino)propyl)benzofuran-2-carboxamide]	0.81 µM	480 µM	44%	50.1%	–	–	–
O=C(NCCCNc1c2c(nc3cc(Cl)ccc13)CCCC2)c1cc2cccc(O)c2o1 [Compound 23, N-(3-((6-chloro-1,2,3,4-tetrahydroacridin-9-yl)amino)propyl)-7-hydroxybenzofuran-2-carboxamide]	–	–	–	–	0.13 µM	52.5%	31.5%
O=C(NCCCCNc1c2c(nc3cc(Cl)ccc13)CCCC2)c1cc2cccc(O)c2o1 [Compound 24, N-(4-((6-chloro-1,2,3,4-tetrahydroacridin-9-yl)amino)butyl)-7-hydroxybenzofuran-2-carboxamide]	0.61 µM	434 µM	43.4%	53.4%	–	–	–
COc1cccc2cc(C(=O)NCCCNc3c4c(nc5cc(Cl)ccc35)CCCC4)oc12 [Compound 19, N-(3-((6-chloro-1,2,3,4-tetrahydroacridin-9-yl)amino)propyl)-7-methoxybenzofuran-2-carboxamide]	0.13 µM	–	57.8%	–	–	–	–
